Biological target: T1, μ-opioid receptor (Homo sapiens, UniProt P35372)
T1 construct: expressed in transfected cells; host or cells: HEK-293
Test: μ-opioid receptor [35S]GTPγS functional assay
Assay type: biochemical
Settings: HEK-293 cells; for Emax: maximal effect relative to DAMGO
Method: [^35S]GTPγS functional assays were conducted using freshly thawed μ-receptor membranes prepared in-house from a cell line expressing recombinant μ opioid receptor in a HEK-293, CHO or U-2 OS cell background, or purchased from a commercial source (Perkin Elmer, Shelton, Conn.; or DiscovRx, Fremont, Calif.). Assay reactions were prepared by sequentially adding the following reagents to binding buffer (100 mM NaCl, 10 mM MgCl2, 20 mM HEPES, pH 7.4) on ice (final concentrations indicated): membrane protein (0.026 mg/mL), saponin ([…]), GDP ([…]) and [^35S]GTPγS (0.20 nM; Perkin Elmer, Shelton, Conn.). The prepared membrane solution (190 μl/well) was transferred to 96-shallow well polypropylene plates containing 10 μl of 20× concentrated stock solutions of the agonist [D-Ala^2, N-methyl-Phe^4 Gly-ol^5]-enkephalin (DAMGO) prepared in dimethyl sulfoxide (DMSO). Plates were incubated for 30 min at about 25° C. with shaking. Reactions were terminated by rapid filtration onto 96-well Unifilter GF/B filter plates (Perkin Elmer, Shelton, Conn.) using a 96-well tissue harvester (Perkin Elmer, Shelton, Conn.) followed by three filtration washes with 200 μl of ice-cold wash buffer (10 mM NaH2PO4, 10 mM Na2HPO4, pH 7.4). Filter plates were subsequently dried at 50° C. for 2-3 hours. BetaScint scintillation cocktail (Perkin Elmer, Shelton, Conn.) was added (50 μl/well) and plates were counted using a Packard Top-Count for 1 min/well. Data were analyzed using the sigmoidal dose-response curve fitting functions in GraphPad PRISM v. 3.0, or an in-house function for non-linear, sigmoidal dose-response curve-fitting.
μ GTP EC50 is the concentration of a compound providing 50% of the maximal response for the compound at a μ-opioid receptor.
μ GTP Emax (%) is the maximal effect elicited by a compound relative to the effect elicited by DAMGO, a standard agonist. Generally, the μ GTP Emax (%) value measures the efficacy of a compound to treat or prevent pain or other Conditions.
In TABLE 1, activity response of certain Compounds of the Invention to the μ-opioid receptors was determined as described above for functional assays using HEK-293 cells.

[1] = cell prints μM under an nM head
[2] = membranes with recombinant μ opioid receptor

T1 sequence (P35372 whole entry, species assumed): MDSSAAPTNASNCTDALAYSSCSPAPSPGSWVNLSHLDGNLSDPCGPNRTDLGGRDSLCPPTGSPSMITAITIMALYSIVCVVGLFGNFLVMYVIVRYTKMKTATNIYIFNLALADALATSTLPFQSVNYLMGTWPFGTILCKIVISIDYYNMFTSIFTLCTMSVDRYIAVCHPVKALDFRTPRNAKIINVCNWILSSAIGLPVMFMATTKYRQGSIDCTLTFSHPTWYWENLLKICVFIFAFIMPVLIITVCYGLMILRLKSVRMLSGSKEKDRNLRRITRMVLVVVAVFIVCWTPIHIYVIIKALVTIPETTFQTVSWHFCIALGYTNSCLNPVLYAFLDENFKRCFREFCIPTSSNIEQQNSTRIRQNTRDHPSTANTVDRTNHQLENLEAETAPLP

Structure (SMILES) | EC50 [1] [µM] | Emax [%] | EC50 [2] [µM]
COc1ccc(CN2C[C@H]3[C@H]4Cc5ccc(OC)cc5[C@@]3(CCN4C)CC2=O)cc1 [Compound 8, (4aS,5R,10bS)-9-methoxy-3-(4-methoxybenzyl)-13-methyl-4,4a,5,6-tetrahydro-1H-5,10b-(epiminoethano)benzo[f]isoquinolin-2(3H)-one] | > 20 | 70.3 ± 1.67 | 
COc1ccc(CN2CC[C@]34CCN(C)[C@H](Cc5ccc(OC)cc53)[C@@H]4C2)cc1 [Compound 9, (4aS,5R,10bR)-9-methoxy-3-(4-methoxybenzyl)-13-methyl-2,3,4,4a,5,6-hexahydro-1H-5,10b-(epiminoethano)benzo[f]isoquinoline] | > 20 | 28.7 ± 1.45 | 
COc1ccc2c(c1)[C@]13CCN(C)[C@H](C2)[C@@H]1CNC(=O)C3 [Compound 11, (4aS,5R,10bS)-9-methoxy-13-methyl-4,4a,5,6-tetrahydro-1H-5,10b-(epiminoethano)benzo[f]isoquinolin-2(3H)-one] | > 20 | 57.8 ± 2.68 | 
CN1CC[C@]23CCN(Cc4ccc(O)cc4)C[C@H]2[C@H]1Cc1ccc(O)cc13 [Compound 23, (4aS,5R,10bR)-3-(4-hydroxybenzyl)-13-methyl-2,3,4,4a,5,6-hexahydro-1H-5,10b-(epiminoethano)benzo[f]isoquinolin-9-ol] |  | 51.7 ± 2.85 | 1.59 ± 0.0616
CN1CC[C@]23CC(=O)NC[C@H]2[C@H]1Cc1ccc(O)cc13 [Compound 24, (4aS,5R,10bS)-9-hydroxy-13-methyl-4,4a,5,6-tetrahydro-1H-5,10b-(epiminoethano)benzo[f]isoquinolin-2(3H)-one] |  | 52 ± 2.08 | 1.38 ± 0.104
CN1CC[C@]23CCNC[C@H]2[C@H]1Cc1ccc(O)cc13 [Compound 25, (4aS,5R,10bR)-13-methyl-2,3,4,4a,5,6-hexahydro-1H-5,10b-(epiminoethano)benzo[f]isoquinolin-9-ol] |  | 43.7 ± 1.45 | 8.36 ± 0.929
CN1CC[C@]23CC(=O)N(CC4CC4)C[C@H]2[C@H]1Cc1ccc(O)cc13 [Compound 26] |  | 67.7 ± 1.2 | 0.881 ± 0.183
CN1CC[C@]23CCN(CC4CC4)C[C@H]2[C@H]1Cc1ccc(O)cc13 [Compound 27, (4aS,5R,10bR)-3-(cyclopropylmethyl)-13-methyl-2,3,4,4a,5,6-hexahydro-1H-5,10b-(epiminoethano)benzo[f]isoquinolin-9-ol] |  | 44.4 ± 2.5 | 14 ± 1.94
CN1CC[C@]23CC(=O)N(Cc4ccccc4)C[C@H]2[C@H]1Cc1ccc(O)cc13 [Compound 28] |  | 58.7 ± 4.84 | 2.73 ± 0.392
CC(=O)N1CC[C@]23CCN(C)[C@H](Cc4ccc(O)cc42)[C@@H]3C1 [Compound 29, 1-((4aS,5R,10bS)-9-hydroxy-13-methyl-1,2,4,4a,5,6-hexahydro-3H-5,10b-(epiminoethano)benzo[f]isoquinolin-3-yl)ethan-1-one] |  | 64.7 ± 4.63 | 0.298 ± 0.0278
CC(C)C(=O)N1CC[C@]23CCN(C)[C@H](Cc4ccc(O)cc42)[C@@H]3C1 [Compound 30, 1-((4aS,5R,10bS)-9-hydroxy-13-methyl-1,2,4,4a,5,6-hexahydro-3H-5,10b-(epiminoethano)benzo[f]isoquinolin-3-yl)-2-methylpropan-1-one] |  | 37.2 ± 1.18 | 0.733 ± 0.0407
CN1CC[C@]23CCN(C(=O)C4CC4)C[C@H]2[C@H]1Cc1ccc(O)cc13 [Compound 31, Cyclopropyl ((4aS,5R,10bS)-9-hydroxy-13-methyl-1,2,4,4a,5,6-hexahydro-3H-5,10b-(epiminoethano)benzo[f]isoquinolin-3-yl)methanone] |  | 49 ± 1.53 | 0.725 ± 0.0265
CN1CC[C@]23CCN(C)[C@H](Cc4ccc(O)cc42)[C@@H]3C1 [Compound 32, (4aS,5R,10bR)-3,13-dimethyl-2,3,4,4a,5,6-hexahydro-1H-5,10b-(epiminoethano)benzo[f]isoquinolin-9-ol] |  | 71.7 ± 3.18 | 1.07 ± 0.14
CN1CC[C@]23CCN(C(=O)Nc4ccccc4)C[C@H]2[C@H]1Cc1ccc(O)cc13 [Compound 33, (4aS,5R,10bS)-9-hydroxy-13-methyl-N-phenyl-1,2,4,4a,5,6-hexahydro-3H-5,10b-(epiminoethano)benzo[f]isoquinoline-3-carboxamide] |  | 54.7 ± 8.35 | 0.152 ± 0.00519
